{"source": "patent US5994402A", "about": "“Anti-inflammatory and anti-pyretic method” (priority 1997, dated 1999)", "key": {"[1]": {"test_system": "cerebral ischemia-reperfusion injury", "conditions": "literature; cited from earlier work"}, "[2]": {"test_system": "lung permeability after intratracheal LPS", "assay": "LPS-induced lung injury: lung permeability index (transcapillary 125I-albumin flux)", "type": "in vivo, male Sprague Dawley rats", "conditions": "for Lung PI (t = 4 hrs): LPS +, mean ± SEM", "method": "(§1) Male Sprague Dawley rats weighing 250-275 g were obtained from Charles River Laboratories (Constante, Quebec). All animal studies were performed in accordance with guidelines set forth by the Toronto Hospital Animal Care Committee and the Canadian Council on Animal Care. Animals were housed in standard wire bottom cages, fed standard rat chow and water ad libitum and were allowed to acclimatize before use. Prior to experimentation, animals were fasted overnight and anesthetized with intraperitoneal sodium pentobarbital (50 mg/kg). A tracheostomy was performed and 0.5 ml of saline containing […] of lipopolysaccharide was instilled followed by 20 mechanically ventilated breaths using a rodent ventilator. Sham animals received 0.5 ml of saline alone. Animals were maintained at 37° C. with the use of warming blankets until recovery from anaesthesia.\n(§2) For examples 11 to 17, systemic GSH depletion in animals was accomplished by administering various doses of DEM or phorone by intraperitoneal injection following an overnight fast\nAt the end of the experimental protocol, rats were ventilated, heparin (100 U) was injected into the right ventricle, and 1 ml of blood was withdrawn by cardiac puncture. Following exsanguination, lungs were perfused blood-free by cannulating the pulmonary artery and infusing 10 ml of a low-potassium dextran solution containing 0.5 mg/L of PGE1. The left ventricle, left atria and mitral valve were opened widely to allow free drainage of effluent. The right lung was immediately frozen in liquid nitrogen for assay of non-protein thiols and ICAM-1 and TNF-a mRNA expression, myeloperoxidase activity, as described below. The left lung was used to calculate a permeability index (PI) as follows: [formula] Thioglycollate-induced Peritonitis"}, "RHEC": {"test_system": "RHEC", "assay": "Cytotoxicity to RHEC (LDH, trypan blue, monolayer integrity)", "type": "cell-based, rat", "conditions": "for supernatant lactate dehydrogenase activity: DEM, mean ± SEM", "source_text": "To determine whether the reduction in ICAM-1 expression was a direct effect of DEM, we attempted to recapitulate the effect in vitro using rat heart endothelial cells (RHEC) activated by either LPS or TNF-a.\n(§3) ICAM-1 is expressed on a number of cells present in the lung including endothelial cells, macrophages, neutrophils and alveolar epithelial cells {3224}. Since DEM served to reduced PMN sequestration In the lung, we hypothesized that an effect on endothelial cell ICAM-1 expression might be responsible. To test this possibility, we modeled the system in vitro using RHEC activated by either LPS or TNF-a. […] To determine whether the effect of GSH depletion on ICAM-1 expression was species specific, this parameter was similarly evaluated in HUVEC.\nEndothelial cells were isolated from the hearts of 5-day old rats according to the method of Kasten ^22 and allowed to grow to confluence. For experiments 11 to 17, human umbilical vein endothelial cells (HUVEC) were isolated as previously described. The endothelial cells were harvested using trypsin-EDTA treatment and seeded into 96 well, flat bottomed microtitre plates in minimal essential medium with 20% fetal calf serum. When the monolayers had reached confluence (approximately 4 days) cells were pretreated with diethylmaleate for 30 minutes followed by activation with either LPS or TNF-a. After 6 hours, supernatants were collected for measurement of lactate dehydrogenase (LDH) activity. Cells were washed twice with RPMI/5% fetal calf serum and incubated with mouse anti-rat ICAM-1 mAb for 1 hour, washed, and then incubated with peroxidase-conjugated goat anti-mouse IgG for 1 hour. Cells were washed again and color development initiated by the addition of the substrate, o-phenyidiamine hydrochloride. After 18 minutes, the reaction was stopped with 3 M sulfuric acid and the optical density at 492 nm determined using a microtitre plate reader. Data are expressed as the change in absorption from baseline. Quantitation of supernatant LDH activity as a measure of cytotoxicity was determined using spectrophotometric methods as previously described ^23."}, "[3]": {"test_system": "antigen-induced arthritis", "assay": "Antigen-induced arthritis (AIA)", "type": "in vivo, Lewis rats", "conditions": "DEM 6 mmole/kg ip 1 h prior to antigen; 3+ without DEM", "method": "We examined the effect of intracellular thiol depletion in antigen-induced arthritis (AIA) with the administration of diethylmaleate (DEM) which is known to deplete glutathione. AIA was induced by sensitizing Lewis rats with 2 subcutaneous injections of methylated bovine serum albumin (1 mg/ml), then administering an intra-articular injection of mBSA."}, "[4]": {"test_system": "kidney transplant recipients", "assay": "Kidney transplant survival", "type": "in vivo, black 6 mouse donor to C3H mouse", "conditions": "DEM 6 mmol/kg to donor and recipient; some mice", "source_text": "A kidney from a black 6 mouse was transplanted into a C3H mouse in a sample of ten test mice and ten control mice. This is a major mismatch. In the test group, donors were given a single injection of DEM (6mmol/kg) immediately prior to the harvest of the kidney. Recipient mice received a single dose prior to insertion of the kidney. No other agents were used. In the control group, donors and recipients were not given an injection of DEM."}, "[5]": {"test_system": "skin vascular permeability", "assay": "LPS dermal inflammation: skin permeability index", "type": "in vivo, Swiss Webster mice", "conditions": "for PI (mean ± SEM): 24 h", "method": "Swiss Webster mice were injected intradermally with saline or LPS (30 μg) with or without ip DEM or vehicle. Injection sites were harvested after 24 hours and evaluated for change in vascular permeability, using I^125 -labelled albumin and for levels of ICAM-1 mRNA (Table III)."}, "[6]": {"test_system": "intracellular GSH levels in RHEC", "assay": "Intracellular GSH in RHEC", "type": "cell-based, rat", "conditions": "DEM 250 mM (so in the source)", "source_text": "as §3\n(§4) Quantitation of total lung and endothelial non-protein sulfhydryls (NPSH) was assessed using a DTNB based assay as described by Jocelyn. Lung tissue was thawed and weighed, and approximately 0.25 gm was homogenized in 2 ml of 5% SSA. The homogenate was sonicated for 30 seconds and centrifuged for 10 minutes at 10 000 g. The resultant acid thiol extract was assayed for NPSH by quantitating the reduction of DTNB through its conversion to 5-thio-2-nitrobenzoic acid (TNB) at 412 nm using a spectrophotometer. Sample values were then calculated from a standard curve generated using known amounts of GSH and are expressed as GSH equivalents per gram of lung tissue."}, "lung GSH": {"test_system": "lung GSH", "assay": "Lung glutathione / non-protein thiol assay (DTNB)", "type": "in vivo, male Sprague Dawley rats", "conditions": "for Lung GSH (t = 4 hrs): LPS +, mean ± SEM", "method": "as §1, §2, §4\nQuantitation of lung non-protein sulfhydryls (NPSH) was assessed using a DTNB based assay as described by Jocelyn ^17. Lung tissue was thawed and weighed, and approximately 0.25 gm was homogenized in 2 ml of 5% SSA. The homogenate was sonicated for 30 seconds and centrifuged for 10 minutes at 10 000 g. The resultant acid thiol extract was assayed for NPSH by quantitating the is reduction of DTNB through its conversion to 5-thio-2-nitrobenzoic acid (TNB) at 412 nm using a spectrophotometer. Sample values were then calculated from a standard curve generated using known amounts of GSH and are expressed as GSH equivalents per gram of lung tissue."}, "[7]": {"conditions": "phorone 250 mg/kg ip 1 h prior to LPS"}}}
{"compound": "CCCCS(=N)(=O)CCC(N)C(=O)O", "note": "(stereo not shown) [BSO, buthionine sulfoximine]", "values": [{"measurement": "mortality following cerebral ischemia-reperfusion injury", "setting": "[1]", "result": "reduced mortality"}]}
{"compound": "CCOC(=O)/C=C\\C(=O)OCC", "note": "[DEM, diethylmaleate]", "values": [{"measurement": "Lung PI (t = 4 hrs)", "setting": "[2]; DEM injected at -1 h", "result": "0.06 ± 0.02"}, {"measurement": "Lung PI (t = 4 hrs)", "setting": "[2]; DEM injected at -3 h", "result": "0.09 ± 0.02"}, {"measurement": "cell viability (trypan blue exclusion)", "setting": "RHEC; RHEC", "result": "did not affect cell viability"}, {"measurement": "integrity of the cell monolayer", "setting": "RHEC; RHEC", "result": "nor alter the integrity of the cell monolayer"}, {"measurement": "supernatant lactate dehydrogenase levels", "setting": "RHEC; RHEC", "result": "unaffected"}, {"measurement": "supernatant lactate dehydrogenase activity", "setting": "RHEC; RHEC treatment: LPS (1 mg/ml)", "result": "33.0 ± 4.0", "unit": "U/L"}, {"measurement": "supernatant lactate dehydrogenase activity", "setting": "RHEC; RHEC treatment: TNF-a (100 ng/ml)", "result": "33.5 ± 2.5", "unit": "U/L"}, {"measurement": "supernatant lactate dehydrogenase activity", "setting": "RHEC; RHEC treatment: control", "result": "32.5 ± 3.5", "unit": "U/L"}, {"measurement": "quantitative histopathology score", "setting": "[3]", "result": 0}, {"measurement": "survival of recipients", "setting": "[4]", "result": "40 to 50", "unit": "days"}, {"measurement": "skin permeability index, DEM alone", "setting": "[5]; DEM alone", "result": "no effect"}, {"measurement": "PI (mean ± SEM)", "setting": "[5]; LPS id + DEM 3 mmol/kg ip", "result": "4.03 ± 0.43"}, {"measurement": "PI (mean ± SEM)", "setting": "[5]; LPS id + DEM 6 mmol/kg ip, p < 0.001 vs LPS", "result": "0.84 ± 0.28"}, {"measurement": "reduction in intracellular GSH levels", "setting": "[6]", "result": "≈ 75%"}, {"measurement": "intracellular GSH levels", "setting": "[6]; No DEM: 6.74±0.08, p<0.01", "result": "1.66±0.1", "unit": "nmoles/106 cells"}, {"measurement": "Lung GSH (t = 4 hrs)", "setting": "lung GSH; DEM injected at 0 h", "result": "278 ± 18"}, {"measurement": "Lung GSH (t = 4 hrs)", "setting": "lung GSH; DEM injected at +2 h", "result": "361 ± 16"}, {"measurement": "Lung GSH (t = 4 hrs)", "setting": "lung GSH; DEM injected at -1 h", "result": "185 ± 48"}, {"measurement": "Lung GSH (t = 4 hrs)", "setting": "lung GSH; DEM injected at -3 h", "result": "591 ± 118"}]}
{"compound": "CC(C)=CC(=O)C=C(C)C", "note": "[Phorone, diisopropylidene acetone]", "values": [{"measurement": "LPS-induced increase in lung permeability", "setting": "[2]; [7]", "result": "almost complete prevention of the increase in lung permeability"}, {"measurement": "reduction in lung GSH levels", "setting": "lung GSH; [7]", "result": "comparable reduction in lung GSH levels"}]}
